Data from patent publication US10517889B2, “Modulators of SMAD7 expression” (Ionis Pharmaceuticals, Inc., priority 2017, dated 2019).
Strand notation (5' to 3'): a small letter for the sugar, then the base; units joined by * are phosphorothioate-linked, units joined directly phosphodiester-linked; [ ] holds rarer units or linkages, { } end groups; capitals alone tell only the bases. k = constrained ethyl (cEt); [5mC] = 5-methylcytosine; d = 2'-deoxy (DNA)

Tested on: human SMAD7 mRNA
Assay: Antisense inhibition of human SMAD7 mRNA expression in Hep3B cells by 3-10-3 cEt gapmers, 10,000 nM, electroporation (Example 2)
Type: cell-based
Settings: Hep3B cells, 10,000 nM antisense oligonucleotide, electroporation, approximately 24 hours, RT-PCR primer probe set RTS5062, relative to untreated control cells
Outline: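 SMAD7 mRNA was measured by real-time PCR (RTS5062) with RiboGreen total-RNA normalization, about 24 h after 10,000 nM gapmer was delivered by electroporation into Hep3B cells at 20,000 per well. Gapmers were 16-mer 3-10-3 cEt, fully phosphorothioate; values are % inhibition versus untreated controls.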

| Substance | % Inhibition [%] |
| --- | --- |
| 800034 (k[5mC]*k[5mC]*kG*d[5mC]*dA*d[5mC]*dG*dA*d[5mC]*dA*dT*d[5mC]*d[5mC]*k[5mC]*k[5mC]*k[5mC]; antisense) [compound 800034] | 47 |
| 799994 (kA*k[5mC]*kT*dT*dG*dG*dA*dT*dA*dA*dT*dG*dA*kA*kG*kT; antisense) [compound 799994] | 2 |
| 798820 (kT*k[5mC]*kT*d[5mC]*d[5mC]*dT*d[5mC]*d[5mC]*d[5mC]*dA*dG*dT*dA*kT*kG*k[5mC]; antisense) [compound 798820] | 24 |
| 799956 (antisense kT*k[5mC]*kT*d[5mC]*d[5mC]*dA*dG*d[5mC]*d[5mC]*dG*d[5mC]*dT*d[5mC]*kA*kG*kA) [compound 799956] | 57 |
| 800070 (antisense k[5mC]*k[5mC]*kA*dT*dG*dG*d[5mC]*dG*dG*dA*dA*dG*dA*kT*kG*kG) [compound 800070] | 9 |
| 799839 (antisense kA*kG*k[5mC]*dA*d[5mC]*dA*dA*dT*dA*dT*dG*dA*dA*kT*kG*kT) [compound 799839] | 36 |

Same assay, conditions: Hep3B cells, electroporation with 10,000 nM antisense oligonucleotide, approximately 24 hours, RTS5062, percent inhibition of SMAD7 mRNA relative to untreated control cells

| Substance | % Inhibition [%] |
| --- | --- |
| 799809 (antisense k[5mC]*kA*kA*dT*dA*d[5mC]*dT*dG*dA*dA*dA*dT*dG*kA*kG*k[5mC]) [compound 799809] | 43 |
| 799603 (kG*k[5mC]*k[5mC]*d[5mC]*dA*dT*dT*dA*dT*dG*dA*dA*dT*kA*k[5mC]*kA; antisense) [compound 799603] | 52 |
| 799295 (antisense kG*kA*k[5mC]*dT*d[5mC]*dG*d[5mC]*dG*dG*d[5mC]*d[5mC]*dT*dT*kG*kA*kT) [compound 799295] | 30 |
| 799822 (antisense k[5mC]*kA*k[5mC]*dG*dA*dT*d[5mC]*d[5mC]*dT*dG*dG*dG*d[5mC]*kT*k[5mC]*kT) [compound 799822] | 0 |
| 799801 (kA*kA*kT*d[5mC]*dA*dA*dG*dT*d[5mC]*d[5mC]*dT*d[5mC]*dT*kG*kG*kA; antisense) [compound 799801] | 18 |
| 799289 (antisense kT*kA*kT*dT*dA*dA*dT*dG*dG*dT*d[5mC]*dT*dG*k[5mC]*kT*k[5mC]) [compound 799289] | 61 |

Same assay, conditions: Hep3B cells, electroporation with 10,000 nM antisense oligonucleotide, approximately 24 hours, SMAD7 mRNA by RT-PCR (RTS5062), relative to untreated control cells

| Substance | % Inhibition [%] |
| --- | --- |
| 799488 (antisense kT*kG*kG*dA*dA*dG*dA*d[5mC]*dA*d[5mC]*d[5mC]*d[5mC]*d[5mC]*k[5mC]*kA*k[5mC]) [compound 799488] | 42 |
| 800061 (antisense k[5mC]*k[5mC]*k[5mC]*dA*dA*dA*dT*dG*d[5mC]*d[5mC]*dT*dG*d[5mC]*k[5mC]*k[5mC]*k[5mC]) [compound 800061] | 44 |
| 800005 (k[5mC]*k[5mC]*kG*d[5mC]*dA*d[5mC]*d[5mC]*d[5mC]*dA*dG*dA*d[5mC]*d[5mC]*k[5mC]*k[5mC]*kT; antisense) [compound 800005] | 27 |
| 800067 (antisense kA*kG*kG*dA*d[5mC]*d[5mC]*dT*dG*dG*dG*dA*dA*d[5mC]*k[5mC]*k[5mC]*kA) [compound 800067] | 51 |
| 799332 (kG*kG*kG*dA*dA*dT*dG*d[5mC]*d[5mC]*d[5mC]*dT*dT*dT*kG*kA*kG; antisense) [compound 799332] | 45 |
| 798715 (antisense kG*k[5mC]*k[5mC]*d[5mC]*dG*dG*dG*d[5mC]*d[5mC]*dG*d[5mC]*d[5mC]*dG*k[5mC]*k[5mC]*kA) [compound 798715] | 0 |
| 798916 (k[5mC]*kG*k[5mC]*dT*d[5mC]*dT*dG*dT*d[5mC]*d[5mC]*d[5mC]*d[5mC]*dT*k[5mC]*k[5mC]*kG; antisense) [compound 798916] | 13 |
| 799909 (antisense kA*kT*kT*d[5mC]*dA*dT*dA*dA*dT*dA*dT*dT*dG*kA*k[5mC]*kA) [compound 799909] | 36 |
| 830085 (k[5mC]*kA*kG*dG*dA*dT*dA*d[5mC]*dA*d[5mC]*dT*dT*dA*kA*kT*k[5mC]; antisense) [compound 830085] | 27 |
| 798869 (kA*kA*k[5mC]*dA*d[5mC]*d[5mC]*dT*dT*dG*dT*dG*dT*dA*k[5mC]*k[5mC]*kA; antisense) [compound 798869] | 41 |
| 830156 (antisense k[5mC]*kT*kG*dT*dG*d[5mC]*d[5mC]*dT*d[5mC]*dA*dG*d[5mC]*dA*kG*kT*kT) [compound 830156] | 48 |
| 799426 (antisense kG*k[5mC]*kT*dT*dA*dA*dA*dT*dT*dA*dT*dA*dG*k[5mC]*kA*kA) [compound 799426] | 7 |
| 798766 (k[5mC]*kT*kG*dA*dA*d[5mC]*dA*d[5mC]*dT*dT*dT*dG*d[5mC]*kA*k[5mC]*kA; antisense) [compound 798766] | 34 |
| 799947 (antisense kT*k[5mC]*kT*dA*dA*dA*dG*d[5mC]*d[5mC]*dA*d[5mC]*d[5mC]*dA*kA*kG*k[5mC]) [compound 799947] | 28 |

Same assay, conditions: Hep3B cells, electroporation with 10,000 nM antisense oligonucleotide, approximately 24 hours, primer probe set RTS5062, relative to untreated control cells

| Substance | % inhibition of SMAD7 mRNA expression [%] | % Inhibition [%] |
| --- | --- | --- |
| 798742 (antisense k[5mC]*kT*k[5mC]*d[5mC]*dT*dT*d[5mC]*dA*dG*dT*dT*dT*d[5mC]*kT*kT*kG) [compound 798742] | 30 |  |
| 799133 (antisense kG*k[5mC]*kT*dA*dA*dG*d[5mC]*dA*dT*dG*dT*d[5mC]*d[5mC]*k[5mC]*kT*k[5mC]) [compound 799133] |  | 17 |
| 798972 (antisense kT*kA*kT*d[5mC]*dA*dG*dG*dG*dT*dG*dT*d[5mC]*d[5mC]*kT*kG*k[5mC]) [compound 798972] | 18 |  |
| 799060 (antisense kG*k[5mC]*k[5mC]*dA*d[5mC]*dT*dA*dG*d[5mC]*dA*dG*dG*d[5mC]*kT*k[5mC]*kG) [compound 799060] |  | 37 |
| 799116 (antisense kT*kA*kA*d[5mC]*dA*d[5mC]*dA*d[5mC]*dA*dG*dG*dA*dT*kG*kG*kG) [compound 799116] |  | 34 |
| 799339 (kG*kA*kT*dA*d[5mC]*d[5mC]*d[5mC]*dA*dG*dT*dT*d[5mC]*dG*kG*k[5mC]*k[5mC]; antisense) [compound 799339] | 18 |  |
| 799263 (antisense kT*k[5mC]*k[5mC]*dA*dA*d[5mC]*dT*d[5mC]*dT*d[5mC]*dT*dT*dT*kG*k[5mC]*k[5mC]) [compound 799263] | 0 |  |
| 798967 (antisense kT*k[5mC]*kA*dT*dA*d[5mC]*d[5mC]*dT*dG*d[5mC]*d[5mC]*d[5mC]*d[5mC]*kT*kT*k[5mC]) [compound 798967] | 40 |  |
| 799198 (antisense kG*kT*k[5mC]*d[5mC]*dT*dT*dT*d[5mC]*dT*d[5mC]*dT*d[5mC]*dT*k[5mC]*kA*kA) [compound 799198] | 17 |  |
| 798790 (k[5mC]*kG*kG*dG*dT*dA*dT*d[5mC]*dT*dG*dG*dA*dG*kT*kA*kA; antisense) [compound 798790] | 49 |  |
| 799135 (antisense kG*kG*kG*dA*d[5mC]*dT*dG*d[5mC]*dT*dA*dA*dG*d[5mC]*kA*kT*kG) [compound 799135] |  | 38 |
| 799358 (kA*kG*k[5mC]*dA*d[5mC]*dA*dA*dA*dT*dA*d[5mC]*dA*dT*kG*kA*kA; antisense) [compound 799358] | 52 |  |
| 799075 (antisense kA*kG*kA*dT*dG*dG*d[5mC]*d[5mC]*dA*dA*dA*dA*dA*kA*kG*kA) [compound 799075] |  | 0 |
| 799040 (kA*kG*k[5mC]*dT*dG*d[5mC]*dT*dG*dG*dG*dA*d[5mC]*d[5mC]*k[5mC]*k[5mC]*kA; antisense) [compound 799040] |  | 51 |
| 799157 (antisense kG*kT*kT*dG*dT*dA*dG*dA*dA*dG*dA*dA*dA*kT*kG*kA) [compound 799157] |  | 39 |

Same assay, conditions: Hep3B cells, electroporation, 10,000 nM antisense oligonucleotide, approximately 24 hours, RTS5062, relative to untreated control cells

| Substance | % inhibition of SMAD7 mRNA expression [%] |
| --- | --- |
| 799301 (antisense k[5mC]*k[5mC]*kA*d[5mC]*dA*d[5mC]*dA*dT*dT*d[5mC]*d[5mC]*dA*dA*kA*kA*kG) [compound 799301] | 37 |
| 799541 (kT*kT*kA*dA*dT*dG*dA*d[5mC]*dA*d[5mC]*d[5mC]*dA*dA*kA*kG*kT; antisense) [compound 799541] | 55 |

Same assay, conditions: SMAD7 mRNA, Hep3B cells, 10,000 nM antisense oligonucleotide, electroporation, approximately 24 hours, primer probe set RTS5062, relative to untreated control cells

| Substance | % Inhibition [%] |
| --- | --- |
| 790471 (k[5mC]*kG*k[5mC]*d[5mC]*dG*dG*dG*d[5mC]*dG*d[5mC]*dA*d[5mC]*dG*kG*k[5mC]*kT; antisense) [compound 790471] | 4 |
| 829724 (antisense kG*kG*k[5mC]*dA*dT*dG*d[5mC]*dG*d[5mC]*d[5mC]*dA*dG*dT*k[5mC]*kT*k[5mC]) [compound 829724] | 54 |
| 790604 (kT*kA*k[5mC]*dG*dA*dG*dT*dG*dT*dA*dT*dG*dA*kG*kT*kT; antisense) [compound 790604] | 30 |

Same assay, conditions: SMAD7 mRNA, Hep3B cells, electroporation with 10,000 nM antisense oligonucleotide, approximately 24 hours, primer probe set RTS5062, relative to untreated control cells

| Substance | % Inhibition [%] |
| --- | --- |
| 829902 (antisense k[5mC]*kA*kG*d[5mC]*dA*d[5mC]*dG*dG*dG*d[5mC]*dA*dG*d[5mC]*kT*kG*k[5mC]) [compound 829902] | 0 |
| 829887 (antisense k[5mC]*kG*kT*dG*dG*dT*d[5mC]*dA*dT*dT*dG*dG*dG*k[5mC]*k[5mC]*kG) [compound 829887] | 47 |
| 829854 (antisense kG*k[5mC]*kT*dG*dA*d[5mC]*dT*d[5mC]*dT*dT*dG*dT*dT*kG*kT*k[5mC]) [compound 829854] | 25 |
